Test system: Erysiphe graminis f.sp. tritici
Assay: Efficacy against Erysiphe graminis f.sp. tritici on wheat (Example B-1)
Assay type: in vivo
Settings: single active ingredient
Excerpt: A synergistic effect exists whenever the action of an active ingredient combination is greater than the sum of the actions of the individual components. The action to be expected E for a given active ingredient combination obeys the so-called COLBY formula and can be calculated as follows (COLBY, S.R. “Calculating synergistic and antagonistic responses of herbicide combination”. Weeds, Vol. 15, pages 20-22; 1967):
ppm=milligrams of active ingredient (=a.i.) per litre of spray mixture
X=% action by active ingredient I using p ppm of active ingredient
Y=% action by active ingredient II using q ppm of active ingredient.
According to Colby, the expected (additive) action of active ingredients I+II using p+q ppm of [formula]
If the action actually observed (O) is greater than the expected action (E), then the action of the combination is superadditive, i.e. there is a synergistic effect.
Wheat plants c.v. “Arina”, about 10 days old, are sprayed with aqueous suspensions of the active ingredients or mixtures thereof. One day later, the plants are inoculated by dusting with spores of Erysiphe graminis. The tests may also be carried out with curative applications, i.e. application 1-3 days after artificial inoculation of the plants. The plants are incubated in the greenhouse or in climate chambers at 20° C., 70% relative humidity. 7 to 10 days after inoculation, fungal attack on primary leaves is assessed.
The efficacy of the rest combinations and the single active ingredients in the above tests is determined by comparing the degree of fungal attack with that on untreated, similarly inoculated check plants.

Cc1cc(C2CC2)nc(Nc2ccccc2)n1 [Cyprodinil, cyprodinil]
% activity observed (Table 2, 10 ppm): 0% | % activity observed (Table 2, 25 ppm): 15%

N#Cc1c[nH]cc1-c1cccc2c1OC(F)(F)O2 [Fludioxonil, fludioxonil]
% activity observed (Table 1, 250 ppm): 20%

CON=C(C(=O)OC)c1ccccc1CON=C(C)c1cccc(C(F)(F)F)c1 [cmpd. V, methyl 2-{2-[4-(3-trifluoromethylphenyl)-3-aza-2-oxa-3-pentenyl]-phenyl}-2-methoxyimino-acetate]
inhibition at 0.25 ppm (Blumeria graminis, Table 3, 0.25 ppm, read-out: % activity observed): 29% | inhibition at 0.5 ppm (Blumeria graminis, Table 3, 0.5 ppm, read-out: % activity observed): 54%

Reference: patent US20030065001A1, “Fungicidal combinations comprising quinazolinone” (priority 1997, published 2003)
